Source: patent US20190100534A1, “Cephem Compounds with Latent Reactive Groups” (Gladius Pharmaceuticals, Inc., priority 2017, published 2019)

Legend:
Format in all cases: cell-based
[1] = test system: Isogenic E. coli J58 strain carrying IMP-1; test: MIC determination, isogenic E. coli strains; conditions: for MIC: Escherichia coli, 18 h, read-out: Mimimum Inhibitory Concentrations, IMP-1
Method in brief: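 Broth microdilution in cation-adjusted Mueller-Hinton broth with 20 μM apo-transferrin, compound serially diluted two-fold from 64 μg/mL, against E. coli J53 carrying plasmid-borne IMP-1. Inoculum adjusted to 0.5 McFarland; plates incubated 18 h at 37° C. MIC taken as lowest concentration giving a clear well.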

[2] = test system: Pseudomonas aeruginosa PA (RR-1); test: MIC determination; conditions: PA (RR-1), CAMH broth, 20 μM Apo-Transferrin, 37° C., 18 hours; for MIC: Pseudomonas aeruginosa, read-out: Minimum Inhibitory Concentrations, PA (RR-1)
Method in brief: (§1)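 Broth microdilution in CAMH + 20 μM apo-transferrin; inoculum 0.5 McFarland, used within 30 min. Compound 64→0.125 μg/mL, twofold steps. 37 °C, 18 h. MIC = lowest clear-well concentration.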

[3] = test system: Pseudomonas aeruginosa PA (URMC-2); test: MIC determination; conditions: PA (URMC-2), CAMH broth, 20 μM Apo-Transferrin, 37° C., 18 hours; for MIC: Pseudomonas aeruginosa, read-out: Minimum Inhibitory Concentrations, PA (URMC-2)
Method in brief: as §1

[4] = test system: Pseudomonas aeruginosa PA-RR-(G7294437); test: MIC determination; conditions: PA-RR-(G7294437), CAMH broth, 20 μM Apo-Transferrin, 37° C., 18 hours; for MIC: Pseudomonas aeruginosa, read-out: Minimum Inhibitory Concentrations, PA-RR-(G7294437)
Method in brief: as §1

[5] = test system: Pseudomonas aeruginosa (PA); test: MIC determination; conditions: PA, CAMH broth, 20 μM Apo-Transferrin, 37° C., 18 hours; for MIC: Pseudomonas aeruginosa, read-out: Minimum Inhibitory Concentrations, PA
Method in brief: as §1

[6] = test system: Pseudomonas aeruginosa PA-RR-(G8062859); test: MIC determination; conditions: PA-RR-(G8062859), CAMH broth, 20 μM Apo-Transferrin, 37° C., 18 hours; for MIC: Pseudomonas aeruginosa, read-out: Minimum Inhibitory Concentrations, PA-RR-(G8062859)
Method in brief: as §1

[7] = test system: Pseudomonas aeruginosa PA-RR-(purple Fre D); test: MIC determination; conditions: CAMH broth, 20 μM Apo-Transferrin, 37° C., 18 hours; for MIC: Pseudomonas aeruginosa, read-out: Minimum Inhibitory Concentrations, PA-RR-(purple Fre D)
Method in brief: as §1

[8] = test system: E. coli J53 Alone; test: MIC determination, isogenic E. coli strains; conditions: for MIC: Escherichia coli, J53ALONE, 18 h, read-out: Mimimum Inhibitory Concentrations, J53 Alone; for Mimimum Inhibitory Concentrations, J53 Alone: CAMH broth, 20 μM Apo-Transferrin, 37° C., 18 hours
Method in brief: (§2)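 MIC read as the lowest compound level giving a transparent well after 18 h at 37° C. Strains: parent E. coli J53 and isogenic transformants expressing plasmid-borne (pBC-SK(+)) beta-lactamases such as DHA-1; inoculum 0.5 McFarland; CAMH broth plus 20 μM apo-transferrin; compound 64 μg/mL downward, 2-fold dilutions.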

[9] = test system: Isogenic E. coli J58 strain carrying DHA-1; test: MIC determination, isogenic E. coli strains; conditions: for MIC: Escherichia coli, 18 h, read-out: Mimimum Inhibitory Concentrations, DHA-1
Method in brief: as §2

[10] = test system: Isogenic E. coli J58 strain carrying VIM-2; test: MIC determination, isogenic E. coli strains; conditions: for MIC: Escherichia coli, 18 h, read-out: Mimimum Inhibitory Concentrations, VIM-2
Method in brief: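 Broth microdilution in cation-adjusted Mueller-Hinton with 20 μM apo-transferrin, compound serially halved from 64 μg/mL, read by eye after 18 h at 37 °C as lowest clear well. Inoculum: VIM-2-expressing E. coli J53 (pBC-SK(+) plasmid), adjusted to 0.5 McFarland.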

[11] = test system: Isogenic E. coli J58 strain carrying SHV-1; test: MIC determination, isogenic E. coli strains; conditions: for MIC: Escherichia coli, 18 h, read-out: Mimimum Inhibitory Concentrations, SHV-1
Method in brief: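 MIC is the lowest compound concentration leaving a transparent well after overnight (18 h) incubation at 37 °C. The test strain was E. coli J53 expressing plasmid-borne SHV-1 beta-lactamase from pBC-SK(+), adjusted to 0.5 McFarland. Compounds were twofold serially diluted, starting at 64 μg/mL, in CAMH broth supplemented with 20 μM apo-transferrin.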

[12] = test system: Isogenic E. coli J58 strain carrying KPC-2; test: MIC determination, isogenic E. coli strains; conditions: for MIC: Escherichia coli, 18 h, read-out: Mimimum Inhibitory Concentrations, KPC-2
Method in brief: (§3)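 Strain: E. coli J53 electroporated with a pBC-SK(+) plasmid encoding the KPC enzyme, selected on ampicillin. Twofold dilutions ([…]) were made in CAMH broth containing 20 μM apo-transferrin and inoculated at 0.5 McFarland. After overnight (18 h) growth at 37 °C, MIC was read as the lowest concentration with no visible growth.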

[13] = test system: Isogenic E. coli J58 strain carrying KPC-3; test: MIC determination, isogenic E. coli strains; conditions: for MIC: Escherichia coli, 18 h, read-out: Mimimum Inhibitory Concentrations, KPC-3
Method in brief: as §3

[14] = test system: Isogenic E. coli J58 strain carrying NDM-1; test: MIC determination, isogenic E. coli strains; conditions: for MIC: Escherichia coli, 18 h, read-out: Mimimum Inhibitory Concentrations, NDM-1
Method in brief: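 Broth microdilution was run in cation-adjusted Mueller-Hinton broth supplemented with 20 μM apo-transferrin, using a 64 μg/mL top concentration diluted twofold. The inoculum was NDM-1-expressing E. coli J53 (pBC-SK(+) plasmid) at 0.5 McFarland. After overnight incubation (18 h, 37° C), the lowest compound concentration preventing visible growth was recorded as the MIC.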

[15] = test system: Isogenic E. coli J58 strain carrying TEM-26; test: MIC determination, isogenic E. coli strains; conditions: for MIC: Escherichia coli, 18 h, read-out: Mimimum Inhibitory Concentrations, TEM-26
Method in brief: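 E. coli J53 carried a pBC-SK(+) plasmid expressing TEM-26 β-lactamase. Compounds were serially halved from […] in CAMH broth containing 20 μM apo-transferrin, inoculated from a 0.5 McFarland culture and held overnight (18 h, 37° C); MIC read as the lowest concentration without visible growth.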

[16] = test system: Isogenic E. coli J58 strain carrying CTX-M-14; test: MIC determination, isogenic E. coli strains; conditions: for MIC: Escherichia coli, 18 h, read-out: Mimimum Inhibitory Concentrations, CTX-M-14
Method in brief: (§4)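 Isogenic E. coli J53 carrying plasmid-encoded CTX-M-14 or CTX-M-15 (ampicillin-selected), standardized to 0.08-0.1 OD600, incubated overnight (18 h, 37° C.) in CAMH broth plus 20 μM apo-transferrin over 2-fold compound dilutions starting at 64 μg/mL. Lowest concentration with no visible growth recorded as MIC.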

[17] = test system: Isogenic E. coli J58 strain carrying CTX-M-15; test: MIC determination, isogenic E. coli strains; conditions: for MIC: Escherichia coli, 18 h, read-out: Mimimum Inhibitory Concentrations, CTX-M-15
Method in brief: as §4

SMILES | MIC [1] [µg/mL] | MIC [2] [µg/mL] | MIC [3] [µg/mL] | MIC [4] [µg/mL] | MIC [5] [µg/mL] | MIC [6] [µg/mL] | MIC [7] [µg/mL] | MIC [8] [µg/mL] | Mimimum Inhibitory Concentrations, J53 Alone ([8]; Table 4-2) [microgram/mL] | MIC [9] [µg/mL] | MIC [10] [µg/mL] | MIC [11] [µg/mL] | MIC [12] [µg/mL] | MIC [13] [µg/mL] | MIC [14] [µg/mL] | MIC [15] [µg/mL] | MIC [16] [µg/mL] | MIC [17] [µg/mL] | further results
CC(C)(O/N=C(\C(=O)N[C@@H]1C(=O)N2C(C(=O)O)=C(C=Cc3ccc(C[n+]4ccc(NC(=O)c5ccc(O)c(O)c5)cc4)cc3)CS[C@H]12)c1csc(N)n1)C(=O)O (mixture of isomers) [Compound 427, 1-(4-((E/Z)-2-((6R,7R)-7-((Z)-2-(2-aminothiazol-4-yl)-2-(((2-carboxypropan-2-yl)oxy)imino)acetamido)-2-carboxy-8-oxo-5-thia-1-azabicyclo[4.2.0]oct-2-en-3-yl)vinyl)benzyl)-4-(3,4-dihydroxybenzamido)pyridin-1-ium] | 16 | 4 | 0.06 | ≤ 0.06 | 0.06 | 0.25 | 0.25 | ≤ 0.06 | ≤0.06 | 1 | 1 | 1 | 16 | 4 | > 64 | 2 | 1 | 1 | –
CC(C)(O/N=C(\C(=O)N[C@@H]1C(=O)N2C(C(=O)O)=C(C=Cc3ccc(C[N+](C)(C)Cc4ccc(O)c(O)c4Cl)cc3)CS[C@H]12)c1csc(N)n1)C(=O)O (mixture of isomers) [Compound 434, N-(4-((E/Z)-2-((6R,7R)-7-((Z)-2-(2-aminothiazol-4-yl)-2-(((2-carboxypropan-2-yl)oxy)imino)acetamido)-2-carboxy-8-oxo-5-thia-1-azabicyclo[4.2.0]oct-2-en-3-yl)vinyl)benzyl)-1-(2-chloro-3,4-dihydroxyphenyl)-N,N-dimethylmethanaminium] | 0.25 | 1 | 8 | 0.5 | 4 | 2 | 2 | 0.25 | 0.25 | 1 | 2 | 1 | 16 | 64 | > 64 | 2 | 2 | 0.5 | –
CC(C)(O/N=C(\C(=O)N[C@@H]1C(=O)N2C(C(=O)O)=C(C=Cc3ccc(C[n+]4ccc5cc(O)c(O)cc5c4)cc3)CS[C@H]12)c1csc(N)n1)C(=O)O (mixture of isomers) [Compound 435, 2-(4-((E/Z)-2-((6R,7R)-7-((Z)-2-(2-aminothiazol-4-yl)-2-(((2-carboxypropan-2-yl)oxy)imino)acetamido)-2-carboxy-8-oxo-5-thia-1-azabicyclo[4.2.0]oct-2-en-3-yl)vinyl)benzyl)-6,7-dihydroxyisoquinolin-2-ium] | – | – | – | – | – | – | – | – | ≤0.06 | – | – | – | – | – | – | – | – | – | Mimimum Inhibitory Concentrations, IMP-1 ([1]; isogenic E. coli strain, IMP-1, CAMH broth, 20 μM Apo-Transferrin, 37° C., 18 hours): 0.13 microgram/mL; MICs for an E. coli strain carrying the gene for carbapenemase IMP-1, in words ([1]; review of Tables 4-1 and 4-2): low microgram/mL MICs; Minimum Inhibitory Concentrations, PA (RR-1) [2]: 0.25 microgram/mL; Minimum Inhibitory Concentrations, PA (URMC-2) [3]: 0.25 microgram/mL; Minimum Inhibitory Concentrations, PA-RR-(G7294437) [4]: ≤0.06 microgram/mL; Minimum Inhibitory Concentrations, PA [5]: ≤0.06 microgram/mL; Minimum Inhibitory Concentrations, PA-RR-(G8062859) [6]: 0.5 microgram/mL; Minimum Inhibitory Concentrations, PA-RR-(purple Fre D) [7]: 0.5 microgram/mL; Mimimum Inhibitory Concentrations, J53 Alone ([8]; Table 4-1): ≤0.06 microgram/mL; Mimimum Inhibitory Concentrations, DHA-1 ([9]; isogenic E. coli strain, DHA-1, CAMH broth, 20 μM Apo-Transferrin, 37° C., 18 hours): ≤0.06 microgram/mL; Mimimum Inhibitory Concentrations, VIM-2 ([10]; isogenic E. coli strain, VIM-2, CAMH broth, 20 μM Apo-Transferrin, 37° C., 18 hours): ≤0.06 microgram/mL; MICs for an E. coli strain carrying the gene for carbapenemase VIM-1, in words ([10]; review of Tables 4-1 and 4-2): low microgram/mL MICs; Mimimum Inhibitory Concentrations, SHV-1 ([11]; isogenic E. coli strain, SHV-1, CAMH broth, 20 μM Apo-Transferrin, 37° C., 18 hours): 0.13 microgram/mL; Mimimum Inhibitory Concentrations, KPC-2 ([12]; isogenic E. coli strain, KPC-2, CAMH broth, 20 μM Apo-Transferrin, 37° C., 18 hours): 0.25 microgram/mL; Mimimum Inhibitory Concentrations, KPC-3 ([13]; isogenic E. coli strain, KPC-3, CAMH broth, 20 μM Apo-Transferrin, 37° C., 18 hours): 0.13 microgram/mL; Mimimum Inhibitory Concentrations, NDM-1 ([14]; isogenic E. coli strain, NDM-1, CAMH broth, 20 μM Apo-Transferrin, 37° C., 18 hours): 2 microgram/mL; MICs for an E. coli strain carrying the gene for NDM-1, in words ([14]; review of Tables 4-1 and 4-2): lower MICS compared to other compounds tested; Mimimum Inhibitory Concentrations, TEM-26 ([15]; isogenic E. coli strain, TEM-26, CAMH broth, 20 μM Apo-Transferrin, 37° C., 18 hours): ≤0.06 microgram/mL; Mimimum Inhibitory Concentrations, CTX-M-14 ([16]; isogenic E. coli strain, CTX-M-14, CAMH broth, 20 μM Apo-Transferrin, 37° C., 18 hours): ≤0.06 microgram/mL; Mimimum Inhibitory Concentrations, CTX-M-15 ([17]; isogenic E. coli strain, CTX-M-15, CAMH broth, 20 μM Apo-Transferrin, 37° C., 18 hours): ≤0.06 microgram/mL
